From ChEMBL document CHEMBL5053549, “Discovery of Potent and Novel Dual PARP/BRD4 Inhibitors for Efficient Treatment of Pancreatic Cancer” (J Med Chem, 2021)
Activity calls are given as the source filed them. No cut-off for these calls is given here.

How the values were obtained:
SW1990 [1] = assay: Induction of apoptosis in human SW1990 cells assessed as necrotic cells at 4 uM after 4 days by Annexin V-FITC and propidium iodide staining based flow cytometry (reference value: 1.89%); assay type: functional; conditions: time 4 day
CAPAN-1 = assay: Antiproliferative activity against human CAPAN-1 cells assessed as reduction in cell viability after 4 days by MTT assay; assay type: functional, cell-based; conditions: CAPAN-1, 96 h
SW1990 [2] = assay: Induction of autophagy in human SW1990 cells assessed as reduction in p62 expression at 4 uM incubated for 4 days by immunofluorescence assay; assay type: functional, cell-based; conditions: time 4.0 day
SW1990 [3] = assay: Inhibition of homologous recombinant repair in human SW1990 cells assessed as reduction in Rad51 expression at 4 uM after 4 days by Western blot analysis; assay type: functional, cell-based; conditions: time 4.0 day
SW1990 [4] = assay: Inhibition of homologous recombinant repair in human SW1990 cells assessed as reduction in FOXM1 expression at 4 uM after 4 days by Western blot analysis; assay type: functional, cell-based; conditions: time 4.0 day
SW1990 [5] = assay: Antiproliferative activity against human SW1990 cells assessed as reduction in cell viability after 4 days by MTT assay; assay type: functional, cell-based; conditions: SW1990, 96 h
Mus musculus [6] = assay: In vivo inhibition of PARP1 expression in human […] cells xenografted in BALB/c mouse assessed as reversal of Olaparib-induced PARP1 accumulation at 15 mg/kg, ip administered for 28 consecutive days in presence of 45 mg/kg Olaparib by Western blot analysis; assay type: functional, organism-based; conditions: time 28.0 day
SW1990 [7] = assay: Effect on cell cycle progression in human SW1990 cells assessed as reduction in Olaparib-induced CDK6 expression at 1 uM after 4 days in presence of Olaparib by Q-PCR analysis; assay type: functional, cell-based; conditions: time 4.0 day
MDA-MB-231 = assay: Antiproliferative activity against human MDA-MB-231 cells assessed as reduction in cell viability after 7 days; assay type: functional, cell-based; conditions: MDA-MB-231, 168 h
SW1990 [8] = assay: Induction of autophagy in human SW1990 cells assessed as increase in LC3B expression at 4 uM incubated for 4 days by immunofluorescence assay; assay type: functional, cell-based; conditions: time 4.0 day
SW1990 [9] = assay: Inhibition of colony formation in human SW1990 cells at 0.5 uM after 14 days in presence of 1.5 uM Olaparib by crystal violet staining based microscopic analysis; assay type: functional, cell-based; conditions: time 14.0 day
SW1990 [10] = assay: Inhibition of homologous recombinant repair in human SW1990 cells assessed as reduction in c-Myc expression at 4 uM after 4 days by Q-PCR analysis; assay type: functional, cell-based; conditions: time 4.0 day
CFPAC-1 = assay: Antiproliferative activity against human CFPAC-1 cells assessed as reduction in cell viability after 4 days by MTT assay; assay type: functional, cell-based; conditions: CFPAC-1, 96 h, read-out: IC50
SW1990 [11] = assay: Induction of cell cycle arrest in human SW1990 cells assessed as accumulation of cells at G2/M phase at 1 uM incubated for 4 days in presence of 3 uM Olaparib by propidium iodide staining based flow cytometry (reference value: 5.89%); assay type: functional; conditions: time 4 day
SW1990 [12] = assay: Inhibition of homologous recombinant repair in human SW1990 cells assessed as reduction in Rad51 expression at 4 uM after 4 days by Q-PCR analysis; assay type: functional, cell-based; conditions: time 4.0 day
Mus musculus [13] = assay: Toxicity in BALB/c mouse xenografted with human SW1990 cells assessed as kidney damage at 15 mg/kg, ip administered for 28 consecutive days in presence of 45 mg/kg Olaparib; assay type: organism-based; conditions: in vivo, 672 h, time 28 day
[14] = molecular target: Histone acetyltransferase p300 (Homo sapiens, UniProt Q09472); assay: Inhibition of P300 (unknown orign) using acetyl-CoA as substrate preincubated for 30 mins followed by substrate addition measured after 1 hr by microplate reader analysis
SW1990 [15] = assay: Inhibition of homologous recombinant repair in human SW1990 cells assessed as reduction in Olaparib-induced BRCA1 expression at 1 uM after 4 days in presence of Olaparib by Q-PCR analysis; assay type: functional, cell-based; conditions: time 4.0 day
Mus musculus [16] = assay: Effect on cell cycle progression in human SW1990 cells xenografted in BALB/c mouse assessed as reduction in CDK6 expression at 45 mg/kg, ip after 4 days by Q-PCR analysis; assay type: functional, organism-based; conditions: time 4.0 day
SW1990 [17] = assay: Induction of DNA damage in human SW1990 cells assessed as tail DNA at 1 to 4 uM incubated for 4 days in presence of 3 uM Olaparib by comet assay; assay type: functional, cell-based; conditions: dose 1-4 µM, time 4.0 day
[18] = molecular target: T1, Bromodomain-containing protein 4 (Homo sapiens, UniProt O60885); assay: Inhibition of recombinant BRD4 (unknown origin) incubated for 120 mins by TR-FRET assay
SW1990 [19] = assay: Induction of autophagy in human SW1990 cells xenografted in BALB/c mouse assessed as increase in LC3B expression at 45 mg/kg, ip after 4 days by Western blot analysis; assay type: functional, organism-based; conditions: time 4.0 day
SW1990 [20] = assay: Induction of autophagy in human SW1990 cells assessed as increase in ATG5 expression at 1 to 2 uM incubated for 4 days by immunofluorescence assay; assay type: functional, cell-based; conditions: dose 1-2 µM, time 4.0 day
SW1990 [21] = assay: Induction of autophagy in human SW1990 cells xenografted in BALB/c mouse assessed as decrease in p62 expression at 45 mg/kg, ip after 4 days by Q-PCR analysis; assay type: functional, organism-based; conditions: time 4.0 day
Mus musculus [22] = assay: In vivo inhibition of BRD4 expression in human […] cells xenografted in BALB/c mouse at 45 mg/kg, ip administered for 28 consecutive days by Q-PCR analysis; assay type: functional, organism-based; conditions: time 28.0 day
SW1990 [23] = assay: Effect on cell cycle progression in human SW1990 cells assessed as reduction in CCND1 expression at 1 to 2 uM after 4 days by Western blot analysis; assay type: functional, cell-based; conditions: dose 1-2 µM, time 4.0 day
[24] = molecular target: Serine/threonine-protein kinase PLK1 (Homo sapiens, UniProt P53350); assay: Inhibition of recombinant PLK1 (unknown origin) […] measured after 40 mins by ADP-glo luminescence kinase assay
SW1990 [25] = assay: Effect on cell cycle progression in human SW1990 cells assessed as reduction in PLK1 expression at 1 to 2 uM after 4 days by Q-PCR analysis; assay type: functional, cell-based; conditions: dose 1-2 µM, time 4.0 day
Mus musculus [26] = assay: Effect on cell cycle progression in human SW1990 cells xenografted in BALB/c mouse assessed as reduction in CCND1 expression at 45 mg/kg, ip after 4 days by Western blot analysis; assay type: functional, organism-based; conditions: time 4.0 day
Mus musculus [27] = assay: Effect on cell cycle progression in human SW1990 cells xenografted in BALB/c mouse assessed as reduction in CCND1 expression at 45 mg/kg, ip after 4 days by Q-PCR analysis; assay type: functional, organism-based; conditions: time 4.0 day
[28] = molecular target: Poly [ADP-ribose] polymerase 1 (Homo sapiens, UniProt P09874); assay: Inhibition of PARP1 expression in human SW1990 cells at 1 uM after 4 days by Western blot analysis; assay type: cell-based; conditions: time 4.0 day
Mus musculus [29] = assay: Inhibition of homologous recombinant repair in human SW1990 cells xenografted in BALB/c mouse assessed as reduction in BRCA1 expression at 45 mg/kg, ip after 4 days by immunohistochemical analysis; assay type: functional, organism-based; conditions: time 4.0 day
SW1990 [30] = assay: Induction of apoptosis in human SW1990 cells assessed as necrotic cells at 1 uM after 4 days by Annexin V-FITC and propidium iodide staining based flow cytometry (reference value: 1.89%); assay type: functional; conditions: time 4 day
[31] = molecular target: T1, Bromodomain-containing protein 4; assay: Inhibition of recombinant BRD4 (unknown origin) at 1 uM incubated for 120 mins by TR-FRET assay relative to control

Chain of Histone acetyltransferase p300 (Q09472 whole entry): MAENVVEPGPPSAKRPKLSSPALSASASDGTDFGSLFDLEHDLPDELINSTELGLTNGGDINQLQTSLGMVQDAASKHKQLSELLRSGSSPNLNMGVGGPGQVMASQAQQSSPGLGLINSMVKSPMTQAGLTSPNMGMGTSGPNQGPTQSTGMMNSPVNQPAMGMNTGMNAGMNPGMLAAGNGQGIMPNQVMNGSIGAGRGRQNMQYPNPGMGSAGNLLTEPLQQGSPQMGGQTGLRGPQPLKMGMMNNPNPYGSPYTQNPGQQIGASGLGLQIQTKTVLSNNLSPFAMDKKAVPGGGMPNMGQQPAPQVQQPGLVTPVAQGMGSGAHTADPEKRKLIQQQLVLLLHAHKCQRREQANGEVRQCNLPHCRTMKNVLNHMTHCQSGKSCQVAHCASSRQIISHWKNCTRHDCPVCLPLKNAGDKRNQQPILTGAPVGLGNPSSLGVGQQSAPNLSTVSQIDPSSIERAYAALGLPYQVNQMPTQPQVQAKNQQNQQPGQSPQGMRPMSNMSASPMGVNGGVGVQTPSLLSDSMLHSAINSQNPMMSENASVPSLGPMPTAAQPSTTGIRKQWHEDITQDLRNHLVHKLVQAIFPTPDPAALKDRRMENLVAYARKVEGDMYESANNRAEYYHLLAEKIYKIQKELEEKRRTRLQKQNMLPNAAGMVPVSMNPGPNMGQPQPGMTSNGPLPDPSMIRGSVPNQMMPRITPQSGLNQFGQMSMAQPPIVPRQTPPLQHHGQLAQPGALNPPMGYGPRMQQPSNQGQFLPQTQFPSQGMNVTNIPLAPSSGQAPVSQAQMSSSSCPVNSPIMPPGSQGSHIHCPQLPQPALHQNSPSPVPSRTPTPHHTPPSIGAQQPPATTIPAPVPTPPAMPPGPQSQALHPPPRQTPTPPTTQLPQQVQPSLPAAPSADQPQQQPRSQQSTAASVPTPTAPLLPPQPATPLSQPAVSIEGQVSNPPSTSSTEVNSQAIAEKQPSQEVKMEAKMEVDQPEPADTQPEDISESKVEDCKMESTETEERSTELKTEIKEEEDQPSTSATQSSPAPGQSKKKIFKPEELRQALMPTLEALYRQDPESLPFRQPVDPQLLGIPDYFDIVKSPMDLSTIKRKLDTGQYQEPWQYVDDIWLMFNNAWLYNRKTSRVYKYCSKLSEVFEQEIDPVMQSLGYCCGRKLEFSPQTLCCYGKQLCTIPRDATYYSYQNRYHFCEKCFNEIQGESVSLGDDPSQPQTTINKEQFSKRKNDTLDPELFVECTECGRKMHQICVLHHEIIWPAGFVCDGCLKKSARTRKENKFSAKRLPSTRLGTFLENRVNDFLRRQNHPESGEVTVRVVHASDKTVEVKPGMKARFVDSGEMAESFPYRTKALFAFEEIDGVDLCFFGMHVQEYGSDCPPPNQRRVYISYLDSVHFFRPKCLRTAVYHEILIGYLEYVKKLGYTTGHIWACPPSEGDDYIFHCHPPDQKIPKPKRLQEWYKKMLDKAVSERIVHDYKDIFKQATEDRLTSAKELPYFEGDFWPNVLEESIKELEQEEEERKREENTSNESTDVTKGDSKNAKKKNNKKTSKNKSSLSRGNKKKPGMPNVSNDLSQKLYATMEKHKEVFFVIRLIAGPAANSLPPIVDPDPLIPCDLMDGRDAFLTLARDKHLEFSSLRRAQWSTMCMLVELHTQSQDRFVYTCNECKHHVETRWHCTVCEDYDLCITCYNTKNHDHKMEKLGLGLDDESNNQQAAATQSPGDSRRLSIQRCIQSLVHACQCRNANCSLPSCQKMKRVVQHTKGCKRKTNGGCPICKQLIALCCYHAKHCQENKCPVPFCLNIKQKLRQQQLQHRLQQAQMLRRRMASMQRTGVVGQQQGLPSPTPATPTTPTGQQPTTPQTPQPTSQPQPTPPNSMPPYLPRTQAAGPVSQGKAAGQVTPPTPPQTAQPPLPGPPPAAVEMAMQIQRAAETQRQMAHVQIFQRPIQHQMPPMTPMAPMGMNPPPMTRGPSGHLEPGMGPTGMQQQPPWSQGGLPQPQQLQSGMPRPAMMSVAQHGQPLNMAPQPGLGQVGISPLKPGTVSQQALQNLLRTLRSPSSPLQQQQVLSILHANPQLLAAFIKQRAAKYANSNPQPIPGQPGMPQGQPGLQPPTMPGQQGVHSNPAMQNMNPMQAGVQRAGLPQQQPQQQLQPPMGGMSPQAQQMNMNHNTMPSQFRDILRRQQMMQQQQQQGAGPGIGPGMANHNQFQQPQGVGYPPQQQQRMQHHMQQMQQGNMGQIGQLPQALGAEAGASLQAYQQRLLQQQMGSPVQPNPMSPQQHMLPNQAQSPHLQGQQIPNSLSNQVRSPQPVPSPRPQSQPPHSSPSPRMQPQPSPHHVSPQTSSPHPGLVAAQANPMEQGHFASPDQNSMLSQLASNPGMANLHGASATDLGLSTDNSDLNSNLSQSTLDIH
Chain of Serine/threonine-protein kinase PLK1 (P53350 whole entry): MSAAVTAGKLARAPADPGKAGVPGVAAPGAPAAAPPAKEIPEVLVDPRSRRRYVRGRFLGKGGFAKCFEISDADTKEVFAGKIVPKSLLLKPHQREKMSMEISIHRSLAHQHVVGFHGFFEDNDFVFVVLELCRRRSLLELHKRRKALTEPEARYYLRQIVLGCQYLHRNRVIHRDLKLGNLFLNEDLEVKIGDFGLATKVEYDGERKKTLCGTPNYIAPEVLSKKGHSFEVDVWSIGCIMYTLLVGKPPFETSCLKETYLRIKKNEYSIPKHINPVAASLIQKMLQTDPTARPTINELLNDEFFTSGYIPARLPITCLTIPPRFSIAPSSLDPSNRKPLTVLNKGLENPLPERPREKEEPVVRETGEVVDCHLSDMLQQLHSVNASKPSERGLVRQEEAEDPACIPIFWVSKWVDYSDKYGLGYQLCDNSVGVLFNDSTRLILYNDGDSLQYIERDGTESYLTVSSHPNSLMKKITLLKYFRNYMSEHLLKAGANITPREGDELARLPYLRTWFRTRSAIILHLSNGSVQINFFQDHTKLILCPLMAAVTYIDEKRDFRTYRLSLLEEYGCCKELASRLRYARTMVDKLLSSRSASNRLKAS
Chain of Poly [ADP-ribose] polymerase 1 (P09874 whole entry): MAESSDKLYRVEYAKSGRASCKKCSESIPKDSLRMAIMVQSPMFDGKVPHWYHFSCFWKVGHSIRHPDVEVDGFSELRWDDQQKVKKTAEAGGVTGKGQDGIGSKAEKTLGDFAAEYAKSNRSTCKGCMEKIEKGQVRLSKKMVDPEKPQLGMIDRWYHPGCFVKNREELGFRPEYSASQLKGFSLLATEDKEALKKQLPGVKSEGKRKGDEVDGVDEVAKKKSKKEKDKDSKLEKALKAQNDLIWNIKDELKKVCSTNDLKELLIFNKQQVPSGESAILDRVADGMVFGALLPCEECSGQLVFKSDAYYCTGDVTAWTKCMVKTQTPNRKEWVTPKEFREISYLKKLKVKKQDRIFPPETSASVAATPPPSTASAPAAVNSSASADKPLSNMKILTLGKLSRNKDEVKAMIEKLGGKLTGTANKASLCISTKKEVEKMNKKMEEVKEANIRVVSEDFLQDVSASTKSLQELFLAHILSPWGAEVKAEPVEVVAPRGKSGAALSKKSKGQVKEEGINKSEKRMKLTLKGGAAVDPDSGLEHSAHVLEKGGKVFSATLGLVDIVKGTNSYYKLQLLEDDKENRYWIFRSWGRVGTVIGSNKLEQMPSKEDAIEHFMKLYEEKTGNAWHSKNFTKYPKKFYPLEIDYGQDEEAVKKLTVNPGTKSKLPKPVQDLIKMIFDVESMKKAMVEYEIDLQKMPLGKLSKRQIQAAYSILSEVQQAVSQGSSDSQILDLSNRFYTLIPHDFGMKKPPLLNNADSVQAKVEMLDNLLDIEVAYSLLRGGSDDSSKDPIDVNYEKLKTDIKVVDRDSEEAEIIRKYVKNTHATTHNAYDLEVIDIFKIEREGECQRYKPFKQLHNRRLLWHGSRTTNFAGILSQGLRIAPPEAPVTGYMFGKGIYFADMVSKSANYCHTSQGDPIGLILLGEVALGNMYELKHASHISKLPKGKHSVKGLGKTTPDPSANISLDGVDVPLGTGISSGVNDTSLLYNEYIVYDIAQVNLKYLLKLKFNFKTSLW

Cc1sc2c(c1C)C(c1ccc(Cl)cc1)=N[C@@H](CC(=O)OC(C)(C)C)c1nnc(C)n1-2
Activity (SW1990 [1]): 1.23% | IC50 (CAPAN-1): 2440 nM | Activity (SW1990 [2]): Active | inhibition (SW1990 [3]): Active | inhibition (SW1990 [4]): Active | IC50 (SW1990 [5]): 3740 nM | Activity (Mus musculus [6]): Active | Activity (SW1990 [7]): Active | IC50 (MDA-MB-231): 640 nM | Activity (SW1990 [8]): Active | inhibition (SW1990 [9]): Active | inhibition (SW1990 [10]): Active | IC50 (CFPAC-1): 1560 nM | Activity (SW1990 [11]): 9.14% | inhibition (SW1990 [12]): Active | Activity (Mus musculus [13]): Non-Toxic | IC50 [14]: 19400 nM | inhibition (SW1990 [15]): Active

CC[C@@H]1C(=O)N(C)c2cnc(N(C)c3ccc(-c4nc5c(C(N)=O)cccc5[nH]4)cc3OC)nc2N1C1CCCC1
Activity (Mus musculus [16]): Active | Activity (SW1990 [17]): Active | IC50 (CAPAN-1): 1560 nM | IC50 [18]: 101 nM | Activity (SW1990 [19]): Active | IC50 (SW1990 [5]): 980 nM | Activity (SW1990 [20]): Active | Activity (SW1990 [21]): Active | Activity (Mus musculus [22]): Active | Activity (SW1990 [23]): Active | IC50 [24]: 2030 nM | IC50 (MDA-MB-231): 340 nM | Activity (SW1990 [25]): Active | Activity (Mus musculus [26]): Active | Activity (Mus musculus [27]): Active | inhibition [28]: Active | inhibition (Mus musculus [29]): Active | IC50 (CFPAC-1): 1160 nM | Activity (SW1990 [30]): 3.41% | inhibition [31]: 76.2% | IC50 [14]: 59400 nM
